Results: patent US20240228488A1 (TAKEDA PHARMACEUTICAL COMPANY LIMITED, priority 2021, published 2024)

Biological target: human activated kallikrein enzyme (Homo sapiens, UniProt P03952)
Experiment: Plasma kallikrein inhibition, fluorogenic PFR-AMC substrate, 500 pM activated kallikrein format
Format: biochemical
Settings: 500 pM activated kallikrein, 300 uM PFR-AMC, 30 min preincubation, 10 min reaction; read-out: Primary Dose Response Assay: Average EC50
Method in brief: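 Enzyme (500 pM) was preincubated with inhibitor for 30 min at room temperature in 20 mM Tris pH 7.5, 1 mM EDTA, 150 mM NaCl, 0.1% PEG-400 and 0.1% Triton X-100. The reaction was started with 300 uM PFR-AMC, run 10 min, and fluorescence read at 460 nm (380 nm excitation). EC50 derived.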

Chain of human activated kallikrein enzyme (P03952 391-638 limits assumed): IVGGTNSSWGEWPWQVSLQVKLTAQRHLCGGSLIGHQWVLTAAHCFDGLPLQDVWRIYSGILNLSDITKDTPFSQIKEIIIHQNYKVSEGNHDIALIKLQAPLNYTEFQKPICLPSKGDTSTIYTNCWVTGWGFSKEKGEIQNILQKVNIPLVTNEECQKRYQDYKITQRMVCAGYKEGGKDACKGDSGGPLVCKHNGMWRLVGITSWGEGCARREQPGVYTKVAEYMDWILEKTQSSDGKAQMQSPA
Chain of human activated kallikrein enzyme (P03952 20-390 partner limits assumed): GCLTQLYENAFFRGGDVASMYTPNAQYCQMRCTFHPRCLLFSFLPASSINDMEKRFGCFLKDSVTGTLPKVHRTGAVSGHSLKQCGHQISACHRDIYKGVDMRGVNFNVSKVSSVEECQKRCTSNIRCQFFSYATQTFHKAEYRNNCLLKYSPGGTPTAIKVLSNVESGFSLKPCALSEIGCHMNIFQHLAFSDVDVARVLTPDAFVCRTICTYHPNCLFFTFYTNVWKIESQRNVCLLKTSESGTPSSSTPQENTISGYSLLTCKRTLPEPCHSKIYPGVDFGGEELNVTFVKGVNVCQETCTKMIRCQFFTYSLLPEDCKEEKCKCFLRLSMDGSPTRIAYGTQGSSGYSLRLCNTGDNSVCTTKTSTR

SMILES	EC50 [nM]
COCc1nc(NC(=O)[C@H]2C[C@@H]2c2nccc(C)n2)cc(N[C@H](C)c2cn3cc(C4(F)CC4)cc(N4CC(=O)N(C)C4=O)c3n2)n1 [Example 439, (1S,2S)-N-(6-(((R)-1-(6-(1-fluorocyclopropyl)-8-(3-methyl-2,4-dioxoimidazolidin-1-yl)imidazo[1,2-a]pyridin-2-yl)ethyl)amino)-2-(methoxymethyl)pyrimidin-4-yl)-2-(4-methylpyrimidin-2-yl)cyclopropane-1-carboxamide]	< 1
O=C(Nc1nccc2nn(Cc3cn4cc(C5CC5)ccc4n3)cc12)[C@H]1C[C@@H]1c1cc(Cl)ccc1[N+](=O)[O-] (racemic) [Example 578, rac-(1S*,2S*)-2-(5-chloro-2-nitrophenyl)-N-(2-((6-cyclopropylimidazo[1,2-a]pyridin-2-yl)methyl)-2H-pyrazolo[4,3-c]pyridin-4-yl)cyclopropane-1-carboxamide]	1 to 10
Cc1ccnc([C@H]2C[C@@H]2C(=O)Nc2cc(N[C@H](C)c3cn4cc(C5CC5)cc(N5C(=O)N(C)C(=O)C56COC6)c4n3)ncn2)n1 [Example 420, (1S,2S)-N-(6-(((R)-1-(6-cyclopropyl-8-(7-methyl-6,8-dioxo-2-oxa-5,7-diazaspiro[3.4]octan-5-yl)imidazo[1,2-a]pyridin-2-yl)ethyl)amino)pyrimidin-4-yl)-2-(4-methylpyrimidin-2-yl)cyclopropane-1-carboxamide]	< 1
Cc1ccnc([C@H]2C[C@@H]2C(=O)Nc2nccc3nn(Cc4cn5cc(C6CC6)cc(N6CC(=O)N(C)C6=O)c5n4)cc23)n1 (racemic) [Example 576, rac-(1S*,2S*)—N-(2-((6-cyclopropyl-8-(3-methyl-2,4-dioxoimidazolidin-1-yl)imidazo[1,2-a]pyridin-2-yl)methyl)-2H-pyrazolo[4,3-c]pyridin-4-yl)-2-(4-methylpyrimidin-2-yl)cyclopropane-1-carboxamide]	< 1
Cc1ccnc([C@H]2C[C@@H]2C(=O)Nc2cc(N(CC(=O)O)Cc3cn4cc(C5CC5)cc(N5CC(=O)N(C)C5=O)c4n3)ncn2)n1 [Example 461, N-((6-cyclopropyl-8-(3-methyl-2,4-dioxoimidazolidin-1-yl)imidazo[1,2-a]pyridin-2-yl)methyl)-N-(6-((1S,2S)-2-(4-methylpyrimidin-2-yl)cyclopropane-1-carboxamido)pyrimidin-4-yl)glycine]	1 to 10
CN1C(=O)CN(c2cc(C3CC3)cn3cc(CNc4cc(NC(=O)[C@H]5C[C@@H]5c5nccc(C(F)(F)F)n5)ncn4)nc23)C1=O (racemic) [Example I-165, rac-(1S*,2S*)-N-(6-(((6-cyclopropyl-8-(3-methyl-2,4-dioxoimidazolidin-1-yl)imidazo[1,2-a]pyridin-2-yl)methyl)amino)pyrimidin-4-yl)-2-(4-(trifluoromethyl)pyrimidin-2-yl)cyclopropane-1-carboxamide]	1 to 10
Cc1cc(NC(=O)[C@H]2C[C@@H]2c2nccc(C)n2)nc(N[C@H](C)c2cn3cc(C4CC4)cc(N4CC(=O)N(C)C4=O)c3n2)n1 [Example 440, (1S,2S)-N-(2-(((R)-1-(6-cyclopropyl-8-(3-methyl-2,4-dioxoimidazolidin-1-yl)imidazo[1,2-a]pyridin-2-yl)ethyl)amino)-6-methylpyrimidin-4-yl)-2-(4-methylpyrimidin-2-yl)cyclopropane-1-carboxamide]	< 1
Cc1ccnc([C@H]2C[C@@H]2C(=O)Nc2nncc(N(C)Cc3cn4cc(C5CC5)cc(N5CC(=O)N(C)C5=O)c4n3)n2)n1 [Example 668, (1S,2S)—N-(5-(((6-cyclopropyl-8-(3-methyl-2,4-dioxoimidazolidin-1-yl)imidazo[1,2-a]pyridin-2-yl)methyl)(methyl)amino)-1,2,4-triazin-3-yl)-2-(4-methylpyrimidin-2-yl)cyclopropane-1-carboxamide]	< 1
Cc1ccnc([C@H]2C[C@@H]2C(=O)Nc2cc(N(Cc3cn4cc(C5CC5)cc(N5CC(=O)N(C)C5=O)c4n3)C(=O)OC(C)OC(=O)C(C)C)ncn2)n1 (stereo partly drawn) [Example 467, 1-((((6-cyclopropyl-8-(3-methyl-2,4-dioxoimidazolidin-1-yl)imidazo[1,2-a]pyridin-2-yl)methyl)(6-((1S,2S)-2-(4-methylpyrimidin-2-yl)cyclopropane-1-carboxamido)pyrimidin-4-yl)carbamoyl)oxy)ethyl isobutyrate]	100 to 1000
Cc1ccnc([C@H]2C[C@@H]2C(=O)Nc2cc(OCc3cn4cc(C5CC5)cc(N5CC(=O)N(C)C5=O)c4n3)c(CO)nn2)n1 [Example 677, (1S,2S)—N-(5-((6-cyclopropyl-8-(3-methyl-2,4-dioxoimidazolidin-1-yl)imidazo[1,2-a]pyridin-2-yl)methoxy)-6-(hydroxymethyl)pyridazin-3-yl)-2-(4-methylpyrimidin-2-yl)cyclopropane-1-carboxamide]	< 1
CC(=O)N1CCN(c2cc(C3CC3)cn3cc(CNc4cc(NC(=O)[C@H]5C[C@@H]5c5cccc(Cl)c5)ncn4)nc23)CC1 [Example I-1, (1S,2S)—N-(6-(((8-(4-acetylpiperazin-1-yl)-6-cyclopropylimidazo[1,2-a]pyridin-2-yl)methyl)amino)pyrimidin-4-yl)-2-(3-chlorophenyl)cyclopropane-1-carboxamide]	1 to 10
Cc1cc(N2CC3CC3C2=O)c2nc([C@@H](C)Nc3cc(NC(=O)[C@H]4C[C@@H]4c4nccc(C)n4)nc(C)n3)cn2c1 (stereo partly drawn) [Example 430, (1S,2S)-N-(2-methyl-6-(((1R)-1-(6-methyl-8-(2-oxo-3-azabicyclo[3.1.0]hexan-3-yl)imidazo[1,2-a]pyridin-2-yl)ethyl)amino)pyrimidin-4-yl)-2-(4-methylpyrimidin-2-yl)cyclopropane-1-carboxamide]	1 to 10

Now from value to molecule:

EC50 [nM]	SMILES
> 6000	O=C(Nc1cc(N2C[C@H](O)C[C@@H]2c2cn3cc(C4CC4)ccc3n2)ncn1)[C@H]1C[C@@H]1c1cccc(Cl)c1 [Example I-250, (1S,2S)-2-(3-chlorophenyl)-N-(6-((2R,4R)-2-(6-cyclopropylimidazo[1,2-a]pyridin-2-yl)-4-hydroxypyrrolidin-1-yl)pyrimidin-4-yl)cyclopropane-1-carboxamide]
1 to 10	COC(=O)c1cc(C2CC2)cn2cc(CNc3cc(NC(=O)[C@H]4C[C@@H]4c4cccc(Cl)c4)ncn3)nc12 [Example I-146, methyl 2-(((6-((1S,2S)-2-(3-chlorophenyl)cyclopropane-1-carboxamido)pyrimidin-4-yl)amino)methyl)-6-cyclopropylimidazo[1,2-a]pyridine-8-carboxylate]
1000 to 6000	N[C@H]1C[C@H](c2cn3cc(C4CC4)ccc3n2)N(c2cc(NC(=O)[C@H]3C[C@@H]3c3cccc(Cl)c3)ncn2)C1 [Example 297, (1S,2S)—N-(6-((2R,4S)-4-amino-2-(6-cyclopropylimidazo[1,2-a]pyridin-2-yl)pyrrolidin-1-yl)pyrimidin-4-yl)-2-(3-chlorophenyl)cyclopropane-1-carboxamide]
1 to 10	COc1ccnc([C@H]2C[C@@H]2C(=O)Nc2cc(NCc3cn4cc(C5CC5)ccc4n3)ccn2)c1 (racemic) [Example I-214, rac-(1S*,2S*)-N-(4-(((6-cyclopropylimidazo[1,2-a]pyridin-2-yl)methyl)amino)pyridin-2-yl)-2-(4-methoxypyridin-2-yl)cyclopropane-1-carboxamide]
1 to 10	O=C(Nc1cc(NCc2cn3cc(C4CC4)ccc3n2)ncn1)[C@@H]1[C@@H](c2cccc(Cl)c2)C1(F)F (racemic) [Example 503, rac-(1S*,3S*)-3-(3-chlorophenyl)-N-(6-(((6-cyclopropylimidazo[1,2-a]pyridin-2-yl)methyl)amino)pyrimidin-4-yl)-2,2-difluorocyclopropane-1-carboxamide]
1 to 10	CC1(C)CC(=O)N(c2cc(C3CC3)cn3cc(CNc4cc(NC(=O)[C@H]5C[C@@H]5c5cccc(Cl)c5)ncn4)nc23)C1 (racemic) [Example 66, rac-(1S*,2S*)-2-(3-chlorophenyl)-N-(6-(((6-cyclopropyl-8-(4,4-dimethyl-2-oxopyrrolidin-1-yl)imidazo[1,2-a]pyridin-2-yl)methyl)amino)pyrimidin-4-yl)cyclopropane-1-carboxamide]
1 to 10	O=C(Nc1cc(NCc2cn3cc(C4CC4)cc(N4C[C@H](O)CC4=O)c3n2)ncn1)[C@H]1C[C@@H]1c1cccc(Cl)c1 (relative stereo) [Example 65, rac-(1S*,2S*)-2-(3-chlorophenyl)-N-(6-(((6-cyclopropyl-8-((R)-4-hydroxy-2-oxopyrrolidin-1-yl)imidazo[1,2-a]pyridin-2-yl)methyl)amino)pyrimidin-4-yl)cyclopropane-1-carboxamide]
1000 to 6000	O=C(Nc1cc(N2CC[C@@H](O)[C@@H]2c2cn3cc(C4CC4)ccc3n2)ncn1)[C@H]1C[C@@H]1c1cccc(Cl)c1 [Example 485, (1S,2S)-2-(3-chlorophenyl)-N-(6-((2S,3R)-2-(6-cyclopropylimidazo[1,2-a]pyridin-2-yl)-3-hydroxypyrrolidin-1-yl)pyrimidin-4-yl)cyclopropane-1-carboxamide]
> 6000	Nc1c(Cl)cccc1[C@H]1C[C@@H]1C(=O)Nc1cc(NCc2cn3cc(C4CC4)ccc3n2)ncn1 (racemic) [Example 280, rac-(1S*,2S*)-2-(2-amino-3-chlorophenyl)-N-(6-(((6-cyclopropylimidazo[1,2-a]pyridin-2-yl)methyl)amino)pyrimidin-4-yl)cyclopropane-1-carboxamide]
100 to 1000	O=C(Nc1cncnc1NCc1cn2cc(C3CC3)ccc2n1)[C@H]1C[C@@H]1c1cccc(Cl)c1 (racemic) [Example 78, rac-(1S*,2S*)-2-(3-chlorophenyl)-N-(4-(((6-cyclopropylimidazo[1,2-a]pyridin-2-yl)methyl)amino)pyrimidin-5-yl)cyclopropane-1-carboxamide]
